Test results published in publication PMC3490914, “The Nonantibiotic Small Molecule Cyslabdan Enhances the Potency of β-Lactams against MRSA by Inhibiting Pentaglycine Interpeptide Bridge Synthesis” (PLoS ONE, 2012).

Experiments:
FemB = biological target: T1, FemB (Staphylococcus aureus, UniProt Q2FYR1); assay: pull-down of purified recombinant protein on biotinylcyslabdan-immobilized avidin beads, SDS-PAGE (some background binding to beads alone)
T1 construct: recombinant, C-terminal hexahistidine tag

FemA (SAR1388) [1] = biological target: T2, FemA (SAR1388) (Staphylococcus aureus, UniProt P0A0A5); assay: pull-down of purified recombinant protein on biotinylcyslabdan-immobilized avidin beads, SDS-PAGE; also from MRSA lysate with LC-MS/MS; type: binding
T2 construct: recombinant, C-terminal hexahistidine tag

FemA (SAR1388) [2] = biological target: T2, FemA (SAR1388); assay: in vitro glycyl transfer assay with purified FemA, monoglycyl lipid II and […]-glycine, TLC/phosphoimaging; supported by pull-down with biotinylcyslabdan; type: biochemical

T2 sequence (P0A0A5 whole entry): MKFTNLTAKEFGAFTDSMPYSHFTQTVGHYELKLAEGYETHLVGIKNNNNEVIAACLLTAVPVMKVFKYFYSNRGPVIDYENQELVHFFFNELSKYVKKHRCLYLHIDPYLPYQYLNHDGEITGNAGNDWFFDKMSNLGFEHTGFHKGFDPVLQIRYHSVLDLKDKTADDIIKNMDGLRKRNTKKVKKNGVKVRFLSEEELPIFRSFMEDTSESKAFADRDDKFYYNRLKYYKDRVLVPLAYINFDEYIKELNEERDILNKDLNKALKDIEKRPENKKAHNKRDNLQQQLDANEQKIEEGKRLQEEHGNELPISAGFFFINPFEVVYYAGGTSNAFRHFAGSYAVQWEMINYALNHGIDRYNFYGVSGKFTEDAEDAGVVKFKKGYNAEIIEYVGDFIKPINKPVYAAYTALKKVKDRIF
T1 sequence (Q2FYR1 whole entry): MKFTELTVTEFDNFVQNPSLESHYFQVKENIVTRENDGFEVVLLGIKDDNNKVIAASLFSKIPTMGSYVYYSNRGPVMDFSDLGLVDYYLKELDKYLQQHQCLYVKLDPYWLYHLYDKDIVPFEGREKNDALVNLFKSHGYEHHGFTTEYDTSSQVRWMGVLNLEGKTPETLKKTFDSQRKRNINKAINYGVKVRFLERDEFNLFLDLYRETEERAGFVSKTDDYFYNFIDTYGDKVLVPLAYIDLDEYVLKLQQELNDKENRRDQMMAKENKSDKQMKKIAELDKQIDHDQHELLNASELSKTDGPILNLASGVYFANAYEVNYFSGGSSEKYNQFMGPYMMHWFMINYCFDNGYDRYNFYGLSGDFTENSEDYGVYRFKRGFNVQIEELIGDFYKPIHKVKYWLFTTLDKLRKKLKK

| Compound | pull-down of purified recombinant protein on biotinylcyslabdan-immobilized avidi (FemB) | pull-down of purified recombinant protein on biotinylcyslabdan-immobilized avidi (FemA (SAR1388) [1]) | IC50 (FemA (SAR1388) [2]) [µM] |
| --- | --- | --- | --- |
| C=C/C(C)=C/CC1C2(C)CCCC(C)(C)C2CC(O)C1(O)CSC[C@H](NC(C)=O)C(=O)NCCOCCOCCNC(=O)CCCCC1SC[C@@H]2NC(=O)N[C@H]12 (stereo partly drawn) [biotinylcyslabdan] | FemB was bound to only avidin beads, while the binding amount of FemB increased in the presence of biotinylcyslabdan | Purified recombinant SAR1388 protein was then added to avidin beads onto which biotinylcyslabdan had been immobilized. |  |
| C=C/C(C)=C/C[C@@H]1[C@@]2(C)CCCC(C)(C)[C@@H]2C[C@H](O)[C@]1(O)CSC[C@H](NC(C)=O)C(=O)O [cyslabdan] |  |  | 530 |
